Here are results for 2 compounds from publication PMC4872784 (Oncotarget, 2016).

In data set [1] the test system is 23 human leukemia cell lines. Nature of the data set: alamarBlue cytotoxicity assay, panel summary. It counts as cell-based. As for the experimental part: (§1) Following subtraction of background fluorescence from all wells, fluorescence of drug-treated cells was normalized to that of vehicle (<0.5% DMSO)-treated cells to determine the effect of each drug concentration on viability. Each cell line was tested in triplicate and in at least three independent experiments. IC50 (concentration that inhibits cell growth by 50%) values were calculated using CompuSyn software (ComboSyn, Paramus, NJ). […] In addition several cell lines were initially cultured and tested in alternative media (Supplementary Table S2). […] Colony counts were normalized to vehicle-treated controls (100%). Three independent experiments were performed.
In most experiments, cytotoxicity was assessed using alamarBlue assays (Life Technologies, Grand Island, NY). In experiments using NAC and DFO, which can interfere with alamarBlue assay performance, Trypan Blue dye exclusion was used instead.

For data set [2], the system named is MOLM14 cells. Briefly: clonogenicity (colony formation in semi-solid medium). As to conditions: 24h pretreatment. It counts as cell-based, human. As for the experimental part:
as §1
(§2) After 7-10d (leukemia cells) or 10-14d (HSPCs), colonies (≥20 cells) were enumerated.

Another data set relates to MV-4-11 cells. The description is as above. It counts as cell-based, human. Conditions: 24h pretreatment. As for the experimental part: as §1, §2
The subject of the next data set is normal human CD34+ HSPCs. Briefly: clonogenicity of normal HSPCs. It counts as cell-based. As for the experimental part: Cryopreserved human CD34^+ HSPCs from normal adult donors (Cellular Therapy and Cell Processing Facility, Fred Hutchinson Cancer Center, Seattle, WA) were thawed and cultured for 24h in StemSpanSFEM medium (Stemcell Technologies, Vancouver, BC, Canada) containing 100 ng/ml recombinant human (rh) stem cell factor, 20 ng/ml rh thrombopoietin, and 100 ng/ml rh FLT3 ligand (PeproTech, Rocky Hill, NJ), in the presence of the indicated drug concentrations prior to plating for clonogenic assays.
Cells pretreated with ART-838, AS, or vehicle for 24h were diluted and plated in MethoCult medium (Stemcell Technologies). After 7-10d (leukemia cells) or 10-14d (HSPCs), colonies (≥20 cells) were enumerated.
Supplementary Figure S5: Effects of ART-838 and AS on clonogenicity of normal human CD34+ HSPCs. Normal human CD34+ HSPCs were pretreated with the indicated concentrations of ART-838, AS, or vehicle (0.5% DMSO) for 24 h then cultured in semi-solid medium for 10–14d before colonies were enumerated. A. Total hematopoietic colony counts, normalized to vehicle-treated controls (100%) and B. counts of types of colonies, i.e. erythroid (E); granulocyte/macrophage (sum of GM, G and M, combined) and multilineage progenitors (GEMM). Three independent experiments were performed. Data are represented as mean +/– SEM.
Supplementary Figure S6: ART-838 and AS concentration-response curves for KOPN8 and MOLM14. […]

Data set [3] has as its system MOLM14 cells. Nature of the data set: cell cycle distribution (BrdU/7-AAD flow cytometry). In kind it is cell-based, human. As to conditions: for sub-G1-phase cells: vehicle 2%; for S-phase cells: vehicle 38%; for G1-phase cells: vehicle 47%. As for the experimental part:
After cell debris was gated out using FSC/SSC parameters, 10,000 cellular events were collected per sample. Data was analyzed and fluorescence compensation performed using FlowJo software, version 10 (Tree Star, Ashland, OR). A. Representative plots from a single experiment.
Cells were pulse-labeled with 10 μM 5-bromo-2-deoxyuridine (BrdU, BD Pharmingen, San Diego, CA) for 90min (37°C), washed in PBS, then fixed in 70% ethanol (1-3d, −20°C). DNA was denatured (2 M HCl, 30min, room temperature) and neutralized (0.1 M Na2B4O7, 10min, room temperature). Cells were stained with APC-conjugated anti-BrdU antibody (BD Pharmingen) and 7-AAD (BioLegend, San Diego, CA), and analyzed by flow cytometry.

Data set [4] relates to MOLM14 cells. Briefly: apoptosis (Annexin-V/7-AAD flow cytometry). As to conditions: 24h. It counts as cell-based, human. As for the experimental part:
(§3) A. Quantification of the percentage of early apoptotic cells (Annexin-V+/7-AAD-) from three independent experiments in which cells were stained for apoptosis with 7-AAD and Annexin-V then analyzed by flow cytometry. […] C. […] 16h after addition of drugs, cells were washed and analyzed by flow cytometry for CM-H2DCFDA fluorescence (indicating total ROS generation) in the FL1 channel. Mean Fluorescence Intensity (MFI) was normalized to that of vehicle control (0.5% DMSO) with no pretreatment. […] Viable cell counts, obtained via Trypan Blue dye exclusion, were normalized to vehicle (0.02% DMSO)-treated samples +/– pretreatment.
Cells were co-stained with […] each 7-AAD and APC-conjugated Annexin-V (BioLegend), in Annexin-V binding buffer and analyzed by flow cytometry. Caspase-3/7 activity was measured using a Caspase-Glo 3/7 Assay (Promega, Madison, WI).

Data set [5] relates to MOLM14 cells. Nature of the data set: total ROS generation (CM-H2DCFDA flow cytometry). In kind it is cell-based, human. Conditions: 16h. As for the experimental part: as §3
Cells were preloaded with 5 μM 5-(and-6)-chloromethyl-2′,7′-dichlorodihydrofluorescein diacetate (CM-H2DCFDA, Life Technologies) in PBS (30min, 37°C), then washed before drug treatment. Following 16h incubation with drugs, cells were analyzed by flow cytometry.

A further data set deals with NSG mice. Nature of the data set: tolerability / maximum-tolerated dose. As for the experimental part:
Blood samples were collected via
retro-orbital bleeding into EDTA-coated tubes from MOLM14 NSG mice 1 day A-D. and 7 days E-H. after completion of a 5-day drug
CBCs were determined using a Hemavet 950 analyzer.
Normal blood samples were obtained from normal, untreated NSG mice (n = 37) over several years.

In another data set the test system is MOLM14 xenograft. Briefly: subcutaneous MOLM14 AML xenograft. Conditions: for average tumor mass less than vehicle-treated tumors: day 21. As for the experimental part: CBCs were performed on day 23 (Supplementary Figure S8). Mice were euthanized when tumors reached an estimated 2000mg. […] B. Percent of Day 0 body weight. […] C. Kaplan-Meier survival analysis. […] D. Percent of Day 0 body weight.

Data set [6] is described as follows: plasma pharmacokinetics after single oral dose. Conditions: NSG mice.
Method: Plasma samples were obtained from 3-6 male NSG mice per time point (15min-24h after drug administration). Symbols represent concentrations of compound by LC/MS-MS detection.
Blood samples were collected via retro-orbital bleeding into EDTA-coated tubes. PK samples were centrifuged to obtain plasma, which was stored frozen (−80°C) until liquid chromatography/triple quadrupole mass spectrometry (LC/MS-MS) analysis.
were separated using an Agilent Zorbax Eclipse C18 column (2.1 mm x 50 mm, 3.5 μm) using gradient mobile phase
(acetonitrile and 2 mM ammonium acetate both containing 0.1% formic acid) and a gradient flow rate (0.2 to 0.4 ml/
min). An AB Sciex 5500 triple quadrupole mass spectrometer was used for detection. The m/z transitions used were
The calibration range was 5–1,000 ng/mL for all analytes. Mean drug concentrations were calculated at each time point. PK parameters (plasma
half-life [T1/2]; time to reach Cmax [Tmax]; maximum plasma concentration [Cmax]; area under the plasma concentration-
time curve [AUC] from time zero to the last measurable concentration [AUClast]; AUC from time zero to infinity [i.e.,
the AUClast + the extrapolated AUC from AUClast to infinity; AUC0–∞]; apparent volume of distribution [Vz/F]; body
weight-adjusted apparent clearance [CL/F/kg]) were calculated from mean drug concentration-time data using non-
the r2 of the elimination rate constant (λ ) was < 0.9, the AUC , CL/F, and T were not reported (NR).
[7] abbreviates: plasma, single oral dose ART-838 50 mg/kg.

Structures are written as SMILES. Several values for one entry are separate records, joined by “and”; a condition that tells them apart may be missing. Identical values can stand only once. Like-named read-outs stand apart in the source and are kept apart here. A value given as a limit tells only on which side of the number the result lay.

For the compound `C[C@@H]1CCC2[C@@H](C)[C@@H](CC(COP(=O)(Oc3ccccc3)Oc3ccccc3)C[C@H]3O[C@@H]4O[C@@]5(C)CCC6[C@H](C)CCC([C@H]3C)[C@]64OO5)O[C@@H]3O[C@@]4(C)CCC1[C@@]23OO4` (stereo partly shown) [ART-838, artemisinin-derived trioxane diphenylphosphate dimer 838], in [1] (across 23 leukemia cell lines), the “fold more potent than AS (average)” value is listed as 88 fold and the “fold more potent than AS (range)” value is listed as 11-315 fold. The IC50 in [1] (all 23 leukemia cell lines tested, 48h, read-out: IC50 range) was in the range of 10 to 550 nM. Besides, in [1] (including those harboring MLLr and FLT3/ITD, read-out: IC50 against every acute leukemia tested), the IC50 was less than 1000 nM. For the same compound, in the data set on MOLM14 cells [2] (ART-838 0.1 μM), the clonogenicity result is listed as “completely abolished”. In addition, the clonogenicity entry in the data set with MV-4-11 cells (ART-838 0.1 μM) was “completely abolished”. The “reduction of normal erythroid and monogranulocytic colony-forming cells” value in the data set on normal human CD34+ HSPCs (1 μM ART-838, 24h pretreatment) was less than 25%. In the data set with MOLM14 cells [3] (0.1 μM ART-838, 24h), this compound registered a sub-G1-phase cells of more than 10%, a S-phase cells of less than 7% and a G1-phase cells of more than 61%. Besides, the “fold lower concentration than AS achieving similar levels of apoptosis and caspase-3/7 activity” value in the data set on MOLM14 cells [4] came to 50 fold. The “total cellular ROS levels” value in the data set with MOLM14 cells [5] (ART-838 0.1 μM) is “significantly increased total cellular ROS levels”. Further, the “chronic MTD” value in the data set on NSG mice (5 days/week by oral gavage, NSG mice) was in the range of 40 to 50 mg/kg. Also, in the data set with NSG mice (NSG mice, oral gavage), the dose-limiting toxicity entry is given as “acute weight loss”. Moreover, the clinical neurotoxicity result with NSG mice (NSG mice, prior toxicity experiments at approximate chronic MTD) is “no clinical neurotoxicity was observed”. Also, in the data set with NSG mice (normal NSG mice, 5-day cycle ART-838 50 mg/kg/d, days 6 and 12), the “complete and differential blood cell counts” value is “normal complete and differential blood cell counts”. Further, the “single dose MTD” value with NSG mice (oral gavage, NSG mice) was 500 to 600 mg/kg. Further, in the data set with MOLM14 xenograft (two 5-day cycles ART-838 50 mg/kg/d oral gavage), the “average tumor mass less than vehicle-treated tumors” value was 83%. For the same compound, in the data set on MOLM14 xenograft (tumor-bearing NSG mice, day 23, after two 5-day cycles ART-838 50 mg/kg/d), the “complete and differential blood cell counts” value was “within the normal range”. For the same compound, in data set [6] (ART-838 50 mg/kg vs DHA after AS 200 mg/kg, oral), the “fold longer T1/2 than DHA” value is approximately 6 fold. Further, in data set [6] (after ART-838 administration, LC/MS-MS), the “detection of theoretical metabolites DHA and ART-606 in plasma” value is listed as “did not detect DHA or ART-606”. In [6] (setting [7]), the “AUC0–∞” value worked out at 951 ng·h/mL, the AUClast worked out at 903 ng·h/mL, the CL/F/kg came to 52 L/h/kg and the Tmax was 1.5 h. The compound also registered a Vz/F in data set [6] (setting [7]) of 241 L/kg. Besides, the T1/2 in data set [6] (plasma, single oral dose ART-838 50 mg/kg, 50 mg/kg) is 3.19 h and > 3 h.
Turning to `C[C@H]1[C@H](OC(=O)CCC(=O)O)O[C@@H]2O[C@@]3(C)CC[C@H]4[C@H](C)CC[C@@H]1[C@@]24OO3` [AS, artesunate], the IC50 in [1] (Homo sapiens, 48 h, all 23 leukemia cell lines tested, 48h, read-out: IC50 range) was 460 to 10300 nM; in [1] (Homo sapiens, Leukemia Type: ALL, unit only on plot axis of Figure 1A, read-out: IC50 Range) it was 460 to 10000 nM; in data set [1] (Homo sapiens, Leukemia Type: ALL, unit only on plot axis of Figure 1A, read-out: Mean IC50), 5000 nM; in data set [1] (Homo sapiens, Leukemia Type: ALL, unit only on plot axis of Figure 1A, read-out: Median IC50) it was 4800 nM; in [1] (Homo sapiens, Leukemia Type: AML, unit only on plot axis of Figure 1A, read-out: IC50 Range), 800 to 6300 nM; in [1] (Homo sapiens, Leukemia Type: AML, unit only on plot axis of Figure 1A, read-out: Mean IC50) it was 2300 nM. Also, in data set [1] (Homo sapiens, Leukemia Type: AML, unit only on plot axis of Figure 1A, read-out: Median IC50), the IC50 turned out to be 1700 nM. Moreover, the clonogenicity result in the data set on MOLM14 cells [2] (AS 10 μM) and in the data set with MV-4-11 cells (AS 10 μM) was “substantially reduced” in each case. Further, the “reduction of normal erythroid and monogranulocytic colony-forming cells” value with normal human CD34+ HSPCs (10 μM AS, 24h pretreatment) was less than 25%. Besides, in the data set on MOLM14 cells [3] (5 μM AS, 24h), the sub-G1-phase cells is recorded as more than 10%. In the data set with MOLM14 cells [3] (5 μM AS, 24h), this compound came in with a S-phase cells of less than 7%. Also, the G1-phase cells in the data set on MOLM14 cells [3] (5 μM AS, 24h) is on record as more than 61%. The apoptosis result in the data set on MOLM14 cells [4] (AS 5 μM) is given as “induced significant apoptosis”. Also, the “total cellular ROS levels” value in the data set with MOLM14 cells [5] (AS 5 μM) is “significantly increased total cellular ROS levels”. Further, the clinical neurotoxicity entry in the data set on NSG mice (mouse, in vivo) is listed as “no clinical neurotoxicity was observed”. Further, the dose-limiting toxicity result with NSG mice (mouse, in vivo, po) was “acute weight loss”. Also, the “average tumor mass less than vehicle-treated tumors” value with MOLM14 xenograft (two 5-day cycles AS 200 mg/kg/d oral gavage) is 44%. Also, the “time by which plasma declined to undetectable levels” value in [6] (single oral dose AS 200 mg/kg) was not above 1 h.
